# Results taken from article PMC12655527, “An Investigational Study on the Role of ADME Agents’ Genetic Variation on DD217 Pharmacokinetics and Safety Profile” (Pharmaceuticals, 2025).
# Assays:
# [1] = test system: patients undergoing knee replacement surgery; assay: Bleeding events during 14-day therapy, phase II trial; format: in vivo, human; conditions: for Bleeding, n (safety outcomes): 14 days
# Description: The design, eligibility criteria, and outcomes of the phase II clinical trial evaluating the safety and tolerability of DD217 (NCT05189002, ClinicalTrials.gov) have been described previously. Briefly, this was a multicenter, double-blind, randomized, prospective phase II study designed to determine the optimal dosing regimen and to assess the safety and efficacy of DD217 for the prevention of venous thromboembolism (VTE) in patients undergoing knee replacement surgery. Patients were randomized into one of three groups: two groups received oral DD217 at doses of 40 mg or 60 mg once daily, starting on the morning of the first postoperative day, and one group received the active comparator, dalteparin sodium. The treatment duration was 14 days.
# In total, seven cases of DVT/PE were documented during the trial: four in the DD217 40 mg/day group, one in the DD217 60 mg/day group, and two in the dalteparin sodium group. In addition, two bleeding events were recorded: one clinically relevant non-major bleed in the DD217 60 mg/day group and one clinically non-relevant minor bleed in the dalteparin sodium group.
# [2] = test system: Factor Xa; parameters: method as in PMID 29468977; conditions: preclinical studies; cited from earlier work
structure (smiles),measurement,setting,value
"CC(=N)N(C)c1ccc(C(=O)Nc2ccc(C)cc2C(=O)Nc2ccc(Cl)cn2)cc1.Cl [DD217, N-(5-chloropyridin-2-yl)-5-methyl-2-[4-(N-methylacetimidamido)benzamido]benzamide hydrochloride]","Bleeding, n (safety outcomes)","[1]; DD217 40 mg/day oral, of 16 patients",0 n
same,bleeding events,"[1]; DD217 60 mg/day group, clinically relevant non-major bleed",one
same,"Bleeding, n (safety outcomes)","[1]; DD217 60 mg/day oral, of 18 patients",1 n
same,affinity for the active site of factor Xa,[2],high affinity
